Results on 44 compounds are retold here after US7504400B2, “MTP inhibiting aryl piperydines or piperazines substituted with 5-membered heterocycles” (Janssen Pharmaceutica N.V., priority 2004, dated 2009).

This assay concerns Secretion of ApoB. As to the kind of experiment: Quantification of the secretion of ApoB in HepG2 cells. In kind it is cell-based. Particulars: Homo sapiens, HepG2, 24 h, 24 hours of incubation with test compound, immunoprecipitation of apoB from medium, read-out: pIC50 value (=-log IC50 value), secretion of ApoB (converted). The gist of the method: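 At 70% confluency, HepG2 cells in MEM with 10% FCS received compound or DMSO carrier (0.4% final) for 24 h. Secreted apoB in cleared medium immunoprecipitated with sheep anti-apoB then rabbit anti-sheep antibody (24 h each, 8° C); pellet radioactivity counted by liquid scintillation; IC50 expressed as pIC50.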
With `CCOC(=O)C(c1ccccc1)N1CCC(c2ccc(-n3ccn([C@@H](C)c4ccc(F)cc4)c3=O)cc2)CC1` (some centres unmarked) [Compound 223], the IC50 was 0.316 to 3.16 µM.
For `CCOC(=O)C(c1ccccc1)N1CCC(c2ccc(-n3ccn([C@H](C)c4ccc(F)cc4)c3=O)cc2)CC1` (some centres unmarked) [Compound 224] the value was 0.0316 to 0.316 µM; for `CCOC(=O)C(c1ccccc1)N1CCC(c2ccc(-n3ccn([C@H](C)c4cccc5ccccc45)c3=O)cc2)CC1` (some centres unmarked) [Compound 225], 0.0316 to 0.316 µM; for `CCOC(=O)C(c1ccccc1)N1CCC(c2ccc(-n3ccn([C@@H](C)c4cccc5ccccc45)c3=O)cc2)CC1` (some centres unmarked) [Compound 226], 0.316 to 3.16 µM.
As to `CCOC(=O)C(c1ccccc1)N1CCC(c2ccc(-n3ccn([C@H](C)c4ccccc4)c3=O)cc2)CC1` (some centres unmarked) [Compound 227], the half-maximal inhibitory concentration (IC50) was 0.0316 to 0.316 µM.
For `CCOC(=O)C(c1ccccc1)N1CCC(c2ccc(-n3ccn([C@@H](C)c4ccccc4)c3=O)cc2)CC1` (some centres unmarked) [Compound 228], the IC50 is 0.316 to 3.16 µM.
For the compound `CCOC(=O)C(c1ccccc1)N1CCC(c2ccc(-n3ccn([C@H](C)c4ccc(Br)cc4)c3=O)cc2)CC1` (some centres unmarked) [Compound 229], the IC50 is 0.0316 to 0.316 µM.
In the case of `CCOC(=O)C(c1ccccc1)N1CCC(c2ccc(-n3ccn([C@@H](C)c4ccc(Br)cc4)c3=O)cc2)CC1` (some centres unmarked) [Compound 230], the IC50 is 0.316 to 3.16 µM.
For the compound `CCOC(=O)C(c1ccccc1)N1CCC(c2ccc(-n3ccn([C@@H](C)c4ccc5ccccc5c4)c3=O)cc2)CC1` (some centres unmarked) [Compound 231], the IC50 is 0.316 to 3.16 µM.
In the case of `CCOC(=O)C(c1ccccc1)N1CCC(c2ccc(-n3ccn([C@H](C)c4ccc5ccccc5c4)c3=O)cc2)CC1` (some centres unmarked) [Compound 232] it was 0.0316 to 0.316 µM; in that of `CCOC(=O)C(c1ccccc1)N1CCC(c2ccc(-n3ccn([C@H](C)c4ccc(C)cc4)c3=O)cc2)CC1` (some centres unmarked) [Compound 233], 0.0316 to 0.316 µM; in that of `CCOC(=O)C(c1ccccc1)N1CCC(c2ccc(-n3ccn([C@@H](C)c4ccc(C)cc4)c3=O)cc2)CC1` (some centres unmarked) [Compound 234], 0.316 to 3.16 µM.
Regarding `CCOC(=O)C(c1ccccc1)N1CCC(c2ccc(-n3ccn([C@H](C)c4ccc(Cl)cc4)c3=O)cc2)CC1` (some centres unmarked) [Compound 235], the IC50 was 0.0316 to 0.316 µM.
For `CCOC(=O)C(c1ccccc1)N1CCC(c2ccc(-n3ccn([C@@H](C)c4ccc(Cl)cc4)c3=O)cc2)CC1` (some centres unmarked) [Compound 236], the IC50 is 0.316 to 3.16 µM.
On to `CCOC(=O)C(c1ccccc1)N1CCC(c2ccc(-n3ccn([C@H](C)c4cccc(OC)c4)c3=O)cc2)CC1` (some centres unmarked) [Compound 237], for which the IC50 was 0.0316 to 0.316 µM.
In the case of `CCOC(=O)C(c1ccccc1)N1CCC(c2ccc(-n3ccn([C@@H](C)c4cccc(OC)c4)c3=O)cc2)CC1` (some centres unmarked) [Compound 238] it was 0.316 to 3.16 µM.
For `CCOC(=O)C(c1ccccc1)N1CCC(c2ccc(-n3ccn([C@H](COC)c4ccccc4)c3=O)cc2)CC1` (some centres unmarked) [Compound 239] the value was 0.316 to 3.16 µM; for `CCOC(=O)C(c1ccccc1)N1CCC(c2ccc(-n3ccn([C@@H](COC)c4ccccc4)c3=O)cc2)CC1` (some centres unmarked) [Compound 240], 0.316 to 3.16 µM; for `CCOC(=O)C(c1ccccc1)N1CCC(c2ccc(-n3ccn([C@@H](C)C4CCCCC4)c3=O)cc2)CC1` (some centres unmarked) [Compound 241], 0.316 to 3.16 µM.
In the case of `CCOC(=O)C(c1ccccc1)N1CCC(c2ccc(-n3ccn(C(CC)c4ccccc4)c3=O)cc2)CC1` (centres unmarked) [Compound 242] it was 0.0316 to 0.316 µM; in that of `CCOC(=O)C(c1ccccc1)C1CCN(c2ccc(-n3ccn([C@@H](C)c4ccc(F)cc4)c3=O)cc2)CC1` (some centres unmarked) [Compound 243], 0.316 to 3.16 µM; in that of `CCOC(=O)C(c1ccccc1)C1CCN(c2ccc(-n3ccn([C@H](C)c4ccc(F)cc4)c3=O)cc2)CC1` (some centres unmarked) [Compound 244], 0.0316 to 0.316 µM.
With `CCOC(=O)C(c1ccccc1)C1CCN(c2ccc(-n3ccn([C@H](C)c4cccc5ccccc45)c3=O)cc2)CC1` (some centres unmarked) [Compound 245], the IC50 was 0.316 to 3.16 µM.
Consider `CCOC(=O)C(c1ccccc1)C1CCN(c2ccc(-n3ccn([C@@H](C)c4cccc5ccccc45)c3=O)cc2)CC1` (some centres unmarked) [Compound 246], for which the IC50 was 0.316 to 3.16 µM.
Turning to `CCOC(=O)C(c1ccccc1)C1CCN(c2ccc(-n3ccn([C@H](C)c4ccccc4)c3=O)cc2)CC1` (some centres unmarked) [Compound 247], the half-maximal inhibitory concentration (IC50) is 0.0316 to 0.316 µM.
For `CCOC(=O)C(c1ccccc1)C1CCN(c2ccc(-n3ccn([C@@H](C)c4ccccc4)c3=O)cc2)CC1` (some centres unmarked) [Compound 248], the IC50 is 0.316 to 3.16 µM.
In the case of `CCOC(=O)C(c1ccccc1)C1CCN(c2ccc(-n3ccn([C@H](C)c4ccc(Br)cc4)c3=O)cc2)CC1` (some centres unmarked) [Compound 249], the half-inhibitory concentration (IC50) is 0.0316 to 0.316 µM.
Regarding `CCOC(=O)C(c1ccccc1)C1CCN(c2ccc(-n3ccn([C@@H](C)c4ccc(Br)cc4)c3=O)cc2)CC1` (some centres unmarked) [Compound 250], the IC50 is 0.316 to 3.16 µM.
In the case of `CCOC(=O)C(c1ccccc1)C1CCN(c2ccc(-n3ccn([C@@H](C)c4ccc5ccccc5c4)c3=O)cc2)CC1` (some centres unmarked) [Compound 251] it was 0.316 to 3.16 µM; in that of `CCOC(=O)C(c1ccccc1)C1CCN(c2ccc(-n3ccn([C@H](C)c4ccc5ccccc5c4)c3=O)cc2)CC1` (some centres unmarked) [Compound 252], 0.316 to 3.16 µM; in that of `CCOC(=O)C(c1ccccc1)C1CCN(c2ccc(-n3ccn([C@H](C)c4ccc(C)cc4)c3=O)cc2)CC1` (some centres unmarked) [Compound 253], 0.0316 to 0.316 µM.
For `CCOC(=O)C(c1ccccc1)C1CCN(c2ccc(-n3ccn([C@@H](C)c4ccc(C)cc4)c3=O)cc2)CC1` (some centres unmarked) [Compound 254] the value was 0.316 to 3.16 µM; for `CCOC(=O)C(c1ccccc1)C1CCN(c2ccc(-n3ccn([C@H](C)c4ccc(Cl)cc4)c3=O)cc2)CC1` (some centres unmarked) [Compound 255], 0.0316 to 0.316 µM.
In the case of `CCOC(=O)C(c1ccccc1)C1CCN(c2ccc(-n3ccn([C@@H](C)c4ccc(Cl)cc4)c3=O)cc2)CC1` (some centres unmarked) [Compound 256] it was 0.316 to 3.16 µM.
Turning to `CCOC(=O)C(c1ccccc1)C1CCN(c2ccc(-n3ccn([C@H](C)c4cccc(OC)c4)c3=O)cc2)CC1` (some centres unmarked) [Compound 257], the IC50 was 0.316 to 3.16 µM.
Take `CCOC(=O)C(c1ccccc1)C1CCN(c2ccc(-n3ccn([C@@H](C)c4cccc(OC)c4)c3=O)cc2)CC1` (some centres unmarked) [Compound 258]: the IC50 is 0.316 to 3.16 µM.
Turning to `CCOC(=O)C(c1ccccc1)C1CCN(c2ccc(-n3ccn([C@H](COC)c4ccccc4)c3=O)cc2)CC1` (some centres unmarked) [Compound 259], the IC50 is 0.316 to 3.16 µM.
For `CCOC(=O)C(c1ccccc1)C1CCN(c2ccc(-n3ccn([C@@H](COC)c4ccccc4)c3=O)cc2)CC1` (some centres unmarked) [Compound 260] the value was 0.316 to 3.16 µM.
Regarding `CCOC(=O)C(c1ccccc1)C1CCN(c2ccc(-n3ccn([C@@H](C)C4CCCCC4)c3=O)cc2)CC1` (some centres unmarked) [Compound 261], the IC50 was 0.0316 to 0.316 µM.
Consider `CCOC(=O)C(c1ccccc1)C1CCN(c2ccc(-n3ccn([C@H](C)C4CCCCC4)c3=O)cc2)CC1` (some centres unmarked) [Compound 262], for which the IC50 was 0.0316 to 0.316 µM.
Turning to `CCOC(=O)C(c1ccccc1)C1CCN(c2ccc(-n3ccn(C(CC)c4ccccc4)c3=O)cc2)CC1` (centres unmarked) [Compound 263], the IC50 is 0.0316 to 0.316 µM.
In the case of `COC(=O)CC1CCN(c2ccc(-n3ccn(C(C)c4ccccc4)c3=O)cc2)CC1` (centres unmarked) [Compound 264] it was 0.316 to 3.16 µM.
Regarding `CCOC(=O)C(c1ccccc1)N1CCN(c2ccc(-n3cnn(C(C)c4ccccc4)c3=O)cc2)CC1` (centres unmarked) [Compound 265], the IC50 is 0.316 to 3.16 µM.
On to `CCOC(=O)C(c1ccccc1)N1CCN(c2ccc(-n3cnn(C(C)c4ccc(F)cc4)c3=O)cc2)CC1` (centres unmarked) [Compound 266], for which the IC50 was 0.316 to 3.16 µM.
